Consider five molecules from patent publication US4018775A, “5-Phenyl-thiazolidin-4-one derivatives” (Warner-Lambert Company, priority 1974, dated 1977).

What all share (format): in vivo
Data set [1] concerns mice with liver damage caused by α-amanitine. The data set is described as follows: Anti-hepatotoxic action: survival rate of mice with liver damage caused by α-amanitine. The following applies: for effect on survival rate of α-amanitine liver damaged mice (in words): in comparison with untreated control animals. The method, then:
As a further animal experimental test model for the testing of the anti-hepatotoxic actions of pharmaceuticals, use is made of the liver damage in mice produced by α-amanitine.
Since it is extremely difficult to obtain α-amanitine in sufficient amounts, only a small amount of α-amanitine was available for these experiments so that the experiments could only be carried out to a very limited extent.
The influence of Compounds Nos. 1 and 4 was determined on the survival rate of mice with liver damage brought about by α-amanitine. As standard substance, there was again used silymarin which was tested by us in the dosage found to be effective by Hahn et al. (Arzneimittel Forschung, 18, 697/1968) as an anti-hepatotoxic in the same experimental procedure.
Each experimental group consisted of 25 animals. The test substances were administered daily over a period of 6 days, administration being intragastrally in a tragacanth mucilage (0.2 ml./10 g. body weight), using a stomach probe.
The intraperitoneal administration of, in each case, 0.3 mg./kg. α-amanitine took place in all experimental groups on the second day of the experiment. The dosage of α-amanitine was so chosen that the mortality rate of the untreated animals remained below 100%. The survival rate of the animals of all experimental groups was monitored daily for a total period of 14 days. The statistical comparison of the survival rate took place according to the Vierfelder […]. The comparative values obtained are set out in the following Table III: […]

A short description of data set [2]: Acute toxicity in the 7 day test on mice. The following applies: mouse, in vivo, po; male NMRI mice, intragastral (i.g.), 7 days observation. The method, then:
(§1) The acute toxicity of the thiazolidones according to the present invention was investigated on male mice (NMRI) with a body weight of 21-26 g. Before commencement of the experiment, the animals fasted for 24 hours but with water available ad libitum. There were 4 mice in each dosage group. The dosage was increased by a factor of 2. The test compounds were suspended in a 1% tragacanth mucilage and administered intragastrally by, means of a stomach probe. The amount of liquid administered was 0.2 ml./10 g. body weight. […] Silymarin was used as standard substance. The LD50 values determined are set out in the following Table I: […]

Data set [3] has as its system male mice (NMRI). The data set is described as follows: Acute toxicity in the 7 day test on mice. As to conditions: intragastral (i.g.), 7 days observation. How it is done:
as §1

Setting [4] is: 2 × 250 mg/kg/day i.g., untreated 52%, 14 days.

Where two headings read alike, the source gives them in different places. Where only a bound is given, the exact number is not on record here.

One may read the LD50 as the dose at which mortality reaches 50%. A low value points to a more toxic substance.

On to `CCOC(=O)C=C1SC(c2ccccc2)(N2CCCCC2)C(=O)N1C` (stereo not drawn) [Compound 1, ethyl 3-methyl-5-phenyl-5-N-piperidino-4-oxo-Δ^2,^α -thiazolidine-acetate], for which the “survival rate of α-amanitine liver damaged animals, treated” value (shortened to “survival rate … treated”) in data set [1] (setting [4]) stood at 92%. In addition, the “effect on survival rate of α-amanitine liver damaged mice (in words)” value in data set [1] was “clearly increases the survival rate”. The same molecule yielded an LD50 at 168 h in data set [2] greater than 1600 mg/kg.
For the molecule `CCOC(=O)C=C1SC(c2ccccc2)(N2CCCC2)C(=O)N1C` (stereo not drawn) [Compound 2, ethyl 3-methyl-5-phenyl-5-N-pyrrolidino-4-oxo-Δ^2,^α -thiazolidine-acetate], in data set [2], the 50% lethal dose (LD50) at 168 h was greater than 1600 mg/kg.
`CCOC(=O)C=C1SC(CC)(c2ccccc2)C(=O)N1C` (stereo not drawn) [Compound 3, ethyl 3-methyl-5-ethyl-5-phenyl-4-oxo-Δ^2,^α -thiazolidine-acetate] displayed an LD50 at 168 h in data set [2] of roughly 1600 mg/kg. For the same molecule, the LD50 entry in data set [3] is on record as “about 1600 mg./kg”.
On to `CCOC(=O)C=C1SC(c2ccccc2)(N2CCCCC2)C(=O)N1CC` (stereo not drawn) [Compound 4, Ethyl 3-ethyl-5-phenyl-5-N-piperidino-4-oxo-Δ^2,^α -thiazolidine-acetate], for which, in data set [1], the “survival rate … treated” value amounted to 100% and the “effect on survival rate of α-amanitine liver damaged mice (in words)” value is listed as “statistically highly significant”. The “survival rate … treated” value in data set [1] (setting [4]) came out at 100%. The molecule also came in with an LD50 at 168 h in data set [2] greater than 1600 mg/kg.
For the molecule `CCOC(=O)C=C1SC(c2ccccc2)(N(C)CCO)C(=O)N1CC` (stereo not drawn) [Compound 5, Ethyl 3-ethyl-5-phenyl-5-(methyl-β-hydroxyethylamino)-4-oxo-Δ^2,^α -thiazolidine-acetate], the LD50 at 168 h in data set [2] is greater than 1600 mg/kg.
